The values that follow come from patent US20050037956A1, “Screening method for agents useful in treating diabetes” (priority 2001, published 2005).

For one experiment, the system named is PAI-1 expression. Description: PAI-1 induction by insulin in adipocytes in presence of PI3K or MEK1 inhibitors. The class given is cell-based. The conditions noted are these: adipocytes treated by insulin in presence of inhibitor. Here is the method: (§1) Adipocyte differentiation was monitored by staining lipids with oil-red O. Briefly, cells were washed twice with phosphate buffered saline (PBS) and fixed with 3.7% formaldehyde solution for 1 h. After washing twice with PBS, cells were stained with oil-red O [60:40 (v/v) dilution in water of 0.5% stock solution (v/v, in isopropanol)] for 1 h. Cells were then washed twice with PBS and twice with water. Lipid-positive cells started to appear after the third day of induction and reached more than 90% by the eighth day. PPARγ (peroxisome proliferator-activated receptor gamma) mRNA, another marker of adipocyte differentiation, also started to appear at the third day and reached a plateau by the 5th day. For RNA analysis, total RNA (12 μg), prepared with acid guanidinium thiocyanate-phenol-chloroform method, was resolved by agarose gel electrophoresis under denaturing conditions and transferred to a nylon membrane as described (Northern blotting) (Ziegler, A., et al., 1991, J Biol Chem 266(31): 21067-74). Equal RNA loading and transfer to nylon membranes were confirmed by staining rRNA with methylene blue (Herrin, D. L. and G. W. Schmidt, 1988, Biotechniques 6(3): 196-7, 199-200). […] Levels of specific RNA were measured using a Molecular Dynamic PhosphorImager. […]

The subject of the next experiment is PAI-1 mRNA. In words: PAI-1 mRNA induction by insulin at different stages of NIH3T3-L1 differentiation (Northern blot). Type of experiment: cell-based. Here is the method: NIH3T3-L1 preadipocytes (ATCC No. CL-173) were induced to differentiate into adipocytes by treating confluent cells with a mixture of insulin, dexamethasone and isobutylmethylxanthine followed by a successive change of different media (Student, A. K. et al., 1980, J Biol Chem. 255:4745-4750). In brief, NIH3T3-L1 preadipocytic cells (2×10^5 cells) were grown in 60-mm plastic dishes with 4 ml Dulbecco's modified Eagle's medium (DMEM) supplemented with 10% fetal bovine serum (FBS). Two days after cells reached confluency, the medium was changed to DMEM containing 10% FBS, 10 μg/ml insulin, 1 μM dexamethason, and 0.5 mM isobutylmethylxanthine. Two days later, this medium was replaced with DMEM supplemented only with 10 μg/ml insulin. Subsequently, two days later this medium was withdrawn and replaced with DMEM containing 10% FBS, and thereafter cells were replenished with the same medium every two days.
as §1, with “21067-74).” for “21067-74). Equal RNA loading and transfer to nylon membranes were confirmed by staining rRNA with methylene blue (Herrin, D. L. and G. W. Schmidt, 1988, Biotechniques 6(3): 196-7, 199-200).”

The subject of experiment [1] is pRB-E2F interaction (E2F-pRB complex). In words: Electromobility shift assay (EMSA) with E2pro oligonucleotide and nuclear extracts from day 8 NIH3T3-L1 cells, peptide added to binding reaction. Conditions: in vitro, increasing peptide concentration added to binding reaction, day 8 NIH3T3-L1 nuclear extracts. How it is done: Changes in E2F DNA-binding patterns during adipogenesis were investigated. Nuclear extracts were prepared from NIH3T3-L1 cells at different times during induction of differentiation and their E2F DNA-binding activity was assessed by DNA gel shift assays using a radio active E2pro oligonucleotide corresponding to two tandem E2F binding sites in the adenovirus E2 promoter. Oligonucleotide probes were radiolabeled using E. coli polynucleotide kinase and {γ-32P}ATP. The oligonucleotides used for electromobility shift assays (EMSA) were as follows (only upper strands are given): E2pro (corresponding to the −72 to −32 region of the adenovirus E2 promoter; E2F binding site), 5′-[…]-3′ (SEQ ID NO:1); CycD1 (E2F binding site from the cyclin D1 promoter), 5′-[…]-3′ (SEQ ID NO:2); CycD1m, 5′-[…]-3′ (SEQ ID NO:3, mutated nucleotides in bold italic). […] The gel was dried and analyzed using a PhosphorImager. […]
The specific peptide was modified to improve cell penetration by linking to the amino terminal end of the interfering peptide a specific region of the HIV tat protein of 18 amino acids in length, which renders conjugated peptides cell-penetrable (Schwarze, S. R., et al., 1999, Science 285(5433): 1569-72). The effect of this elongated interfering peptide on E2F was first assessed in vitro as above. […]

Turning to `COc1cccc(-c2cc(=O)c3ccccc3o2)c1N` [PD98059], in the experiment with PAI-1 expression, the “PAI-1 induction by insulin” value was “suppressed”.
On to insulin, for which the “PAI-1 mRNA induction by insulin” value with PAI-1 mRNA (NIH3T3-L1 cells before cells were confluent) is “induced to a very low extent”; with PAI-1 mRNA (NIH3T3-L1 cells when confluent), “not at all”; in the experiment on PAI-1 mRNA (terminally differentiated cells (day 4 and 8)) it was “induced markedly”.
Regarding “specific interfering peptide: peptide whose sequence was derived from amino acids 402-419 of E2F1 corresponding to the pRB-binding region of E2F1 (LSPPHEALDYHFGLEEGE; UniProt Q01094 402-419, looked up, fragment)”, the “shift of DNA-protein complexes (E2F DNA-binding, EMSA)” value in experiment [1] is on record as “shift from DNA-protein complexes of higher molecular weight forms to complexes of lower molecular weight forms”.
